Assay results reported in the supplement of paper PMC10307832.

Legend:
Experiment in all cases: relative viability (nuclei count vs DMSO), 5 days (fraction); higher = more cells survive
Ruboxistaurin = compound: CN(C)C[C@@H]1CCn2cc(c3ccccc32)C2=C(C(=O)NC2=O)c2cn(c3ccccc23)CCO1 [Ruboxistaurin]
How it was run: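 Nuclei counted with MetaXpress define viability as the ratio of treated to vehicle wells, given as a median across plates. The lung cancer cell lines were in 1536-well plates, pinned with five √10-spaced library-drug doses and imaged at 4× after 5 days and Hoechst staining. Plates passed with control CV below 25% and at least one doubling.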

[1] = compound: CN(C)C[C@@H]1CCn2cc(c3ccccc32)C2=C(C(=O)NC2=O)c2cn(c3ccccc23)CCO1 [Ruboxistaurin] + CCNC(=O)c1noc(-c2cc(C(C)C)c(O)cc2O)c1-c1ccc(CN2CCOCC2)cc1 [Luminespib] (partner 0.01 µM)
How it was run: (§1)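 The day after seeding in 1536-well plates, lung cancer cell lines were treated by pin tool with a single drug, or with a fixed anchor-drug dose together with five library-drug doses (not always all listed) in √10 steps. After 5 days, a combined fix-and-stain solution (final 0.05% Triton X-100, 1% formaldehyde, 1 ug/ml Hoechst) was added. Nuclei counted on 4× images gave relative viability as treated counts over vehicle counts, reported as the median of duplicate plates.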

[2] = compound: CN(C)C[C@@H]1CCn2cc(c3ccccc32)C2=C(C(=O)NC2=O)c2cn(c3ccccc23)CCO1 [Ruboxistaurin] + C[C@@H](Oc1cc(-c2cnn(C3CCNCC3)c2)cnc1N)c1c(Cl)ccc(F)c1Cl [Crizotinib] (partner 1 µM)
How it was run: as §1

[3] = compound: CN(C)C[C@@H]1CCn2cc(c3ccccc32)C2=C(C(=O)NC2=O)c2cn(c3ccccc23)CCO1 [Ruboxistaurin] + C[C@]1(O)C[C@@H](c2nc(-c3ccc4ccc(-c5ccccc5)nc4c3)c3c(N)nccn32)C1 [Linsitinib] (partner 1 µM)
How it was run: as §1

[4] = compound: CN(C)C[C@@H]1CCn2cc(c3ccccc32)C2=C(C(=O)NC2=O)c2cn(c3ccccc23)CCO1 [Ruboxistaurin] + O=C(CCCCCCC(=O)Nc1ccccc1)NO [Vorinostat] (partner 1 µM)
How it was run: as §1

Row | Cell Line | relative viability (Ruboxistaurin; 0.08 µM) | relative viability (Ruboxistaurin; 0.8 µM) | relative viability (Ruboxistaurin; 2.53 µM) | relative viability (Ruboxistaurin; 8 µM) | relative viability ([1]; first compound 0.08 µM) | relative viability ([1]; first compound 0.8 µM) | relative viability ([1]; first compound 2.53 µM) | relative viability ([1]; first compound 8 µM) | relative viability ([2]; first compound 0.08 µM) | relative viability ([2]; first compound 0.8 µM) | relative viability ([2]; first compound 2.53 µM) | relative viability ([2]; first compound 8 µM) | relative viability ([3]; first compound 0.08 µM) | relative viability ([3]; first compound 0.8 µM) | relative viability ([3]; first compound 2.53 µM) | relative viability ([3]; first compound 8 µM) | relative viability ([4]; first compound 0.08 µM) | relative viability ([4]; first compound 0.8 µM) | relative viability ([4]; first compound 2.53 µM) | relative viability ([4]; first compound 8 µM)
1 | NCI-H2228 | 0.94 | 0.89 | 1.01 | 0.93 | 0.173 | 0.172 | 0.125 | 0.111 | 0.453 | 0.427 | 0.316 | 0.3 | 0.847 | 0.481 | 0.681 | 0.751 | 0.924 | 0.424 | 0.588 | 0.559
2 | NCI-H2347 | 1.07 | 0.976 | 1.08 | 1.08 | 0.568 | 0.373 | 0.289 | 0.297 | 0.725 | 0.581 | 0.568 | 0.651 | 0.943 | 0.902 | 0.92 | 0.984 | 0.621 | 0.679 | 0.65 | 0.561
3 | NCI-H2405 | 1.17 | 0.97 | 1.01 | 1.01 | 0.818 | 0.606 | 0.804 | 0.699 | 0.901 | 0.823 | 0.838 | 0.874 | 1.01 | 0.866 | 1.01 | 0.902 | 1.08 | 0.988 | 0.97 | 0.982
4 | NCI-H3122 | 0.98 | 0.963 | 1.01 | 1.07 | 0.0884 | 0.1 | 0.11 | 0.0946 | 0.28 | 0.211 | 0.298 | 0.225 | 1.03 | 0.978 | 1.03 | 1.01 | 1.14 | 0.948 | 1.03 | 1.3
5 | PC-3 [JPC-3] | 1.12 | 0.97 | 1.11 | 1.09 | 0.703 | 0.649 | 0.75 | 0.757 | 1.03 | 0.958 | 1 | 1.02 | 0.974 | 0.91 | 0.915 | 1 | 0.895 | 0.917 | 0.839 | 0.837
6 | PC-14 | 1.17 | 0.924 | 1.01 | 0.989 | 0.159 | 0.144 | 0.184 | 0.154 | 0.932 | 0.821 | 0.958 | 0.929 | 1.02 | 0.914 | 0.936 | 0.914 | 0.892 | 0.668 | 0.785 | 0.648
7 | RERF-LC-KJ | 1.04 | 0.903 | 0.995 | 0.959 | 1.23 | 1.08 | 1.36 | 0.965 | 0.811 | 0.766 | 0.812 | 0.926 | 0.877 | 0.857 | 0.932 | 0.956 | 0.663 | 0.623 | 0.675 | 0.644
8 | SK-LU-1 | 1.22 | 0.969 | 1.03 | 1.08 | 0.208 | 0.212 | 0.204 | 0.2 | 1.03 | 0.734 | 0.869 | 0.583 | 1.14 | 0.975 | 0.991 | 0.854 | 0.946 | 0.722 | 0.776 | 0.657
9 | SK-MES-1 | 1.07 | 0.91 | 1.02 | 0.898 | 0.928 | 0.65 | 0.859 | 0.363 | 1.06 | 1.03 | 0.979 | 0.972 | 1.08 | 1 | 1.02 | 0.996 | 1.11 | 1.03 | 1.03 | 0.95
10 | SW 1573 | 1.16 | 0.871 | 1.02 | 0.907 | 0.232 | 0.208 | 0.314 | 0.182 | 0.855 | 0.74 | 0.942 | 0.688 | 0.879 | 0.839 | 0.799 | 0.772 | 0.756 | 0.413 | 0.809 | 0.698
11 | UMC-11 | 0.964 | 0.914 | 0.974 | 0.762 | 1.04 | 0.804 | 0.961 | 0.695 | 0.537 | 0.554 | 0.64 | 0.465 | 0.976 | 0.884 | 0.987 | 0.642 | 0.41 | 0.377 | 0.388 | 0.289
